Assays:
A549 = test: NCI60 five-dose GI50 (NCI data); format: cell-based; settings: Homo sapiens, SI Table S20
Description: (§1) The concentration−response curve generated enables the determination of three criteria, GI50 (drug concentration at which 50% of cell growth is inhibited), total growth inhibition (TGI) and LC50 (drug concentration at which 50% of tumor cells are killed) which can be used to compare effectiveness against any compound tested in the screen since its inception.
(§2) S2.1 NCI Screening Assay Experimental details
NCI Screening Assay Experimental: Cancer cell growth assays (NCI60 screening) 5,6 […]
Unbound dye was […]
removed with five washes of 1% acetic acid, and the plates were allowed to air dry. The dye was then resolubilised in Tris buffer, and the colorimetric absorbance was measured (515 nm). Growth inhibition was measured relative to the response generated from proliferating cells cultured under identical conditions for 48 h. Data from one-dose experiments pertains to the percentage growth at […]
Five-dose study: Serial 5 × 10-fold dilution from an initial DMSO stock solution was performed, prior to incubation at each individual concentration (10 nM, 100 nM, 1 μM, 10 μM and 100 μM). Using seven absorbance measurements (time zero (Tz), control growth (C), and test growth in the presence of drug at the five concentration levels (Ti)), the percentage growth was calculated at each of the drug concentrations levels. […] Three dose response parameters were calculated for each experimental agent. […]

OVCAR-4 = test: NCI60 five-dose GI50; format: cell-based; settings: Homo sapiens
Description: as §1, §2
(§3) NCI Screening Assay Experimental: Cancer cell growth assays (NCI60 screening) 5,6 One-dose study: Tested compounds were initially solubilised in DMSO, diluted into RPMI 1640 and 5% fetal bovine serum/L-glutamine, and added to 96-well plates containing cell lines previously cultured for 24 h. After 48 h incubation, the media were removed, and the cells were fixed and stained with sulforhodamine B to determine overall percent growth/ total protein content. Unbound dye was removed with five washes of 1% acetic acid, and the plates were allowed to air dry. The dye was then resolubilised in Tris buffer, and the colorimetric absorbance was measured (515 nm). Growth inhibition was measured relative to the response generated from proliferating cells cultured under identical conditions for 48 h. Data from one-dose experiments pertains to the percentage growth at […]
(§4) Five-dose study: Serial 5 × 10-fold dilution from an initial DMSO stock solution was performed, prior to incubation at each individual concentration (10 nM, 100 nM, 1 μM, 10 μM and 100 μM). Using seven absorbance measurements (time zero (Tz), control growth (C), and test growth in the presence of drug at the five concentration levels (Ti)), the percentage growth was calculated at each of the drug concentrations levels. Percentage growth inhibition was calculated as: [(Ti − Tz)/(C − Tz)] × 100 for concentrations for which Ti ≥ Tz, [(Ti − Tz)/Tz] × 100 for concentrations for which Ti < Tz. Three dose response parameters were calculated for each experimental agent. […]
(§5) was calculated from [(Ti − Tz)/(C − Tz)] × 100 = 50, which is the drug concentration resulting in a 50% reduction in the net protein increase (as measured by sulforhodamine B staining) in control cells during the drug incubation. The drug concentration resulting in total growth inhibition (TGI) was calculated from Ti = Tz. The LC50 (concentration of drug resulting in a 50% reduction in the measured protein at the end of the drug treatment as compared to that at the beginning) indicating a net loss of cells following treatment was calculated from [(Ti − Tz)/Tz] × 100 = −50. Values were calculated for each of these three parameters if the level of activity was reached; however, if the effect was not reached or was exceeded, the value for that parameter was expressed as greater or less than the maximum or minimum concentration tested.

MALME-3M = test: NCI60 five-dose GI50; format: cell-based; settings: Homo sapiens
Description: as §1, §2, §3, §4, §5

NCI-H460 cells [1] = test: Annexin V-FITC/PI cell death assay; format: cell-based, human; settings: 48 h; 0.35 and 0.7 μM
Procedure: The effect of compound 25 on the levels of apoptosis and necrosis was evaluated using annexin V-FITC/PI labeling followed by flow cytometry analysis.
Figure 9 Effect of compound 25 on the levels of death of NCI-H460 cells, analyzed by flow cytometry (annexin V−PI assay). […] Results are the mean ± SEM from at least 3 independent experiments. * p ≤ 0.05, when comparing DMSO vs compound treatment.
Analysis of cell death was performed using the Annexin V-FITC apoptosis detection kit (eBioscience, Thermo Fisher Scientific). […] Exposure to 5% ethanol for 1 h was used as a positive control for necrosis. Collected cells were resuspended in the binding buffer solution and incubated with the Annexin V-FITC conjugate for 10 min at RT, in the dark. Afterward, PI was added, and samples were analyzed using the BD Accuri C6 flow cytometer, where at least 10 000 events per sample were plotted. Data analysis was carried out using the BD Accuri C6 Software.

NCI-H460 cells [2] = test: Trypan blue exclusion assay; format: cell-based, human; settings: 48 h; GI50 (0.35 μM) and 2 × GI50 (0.7 μM)
Procedure: After this treatment, cells were mixed with 0.2% (v/v) trypan blue dye (Merck LifeScience) and counted on an hemocytometer (Neubauer Chamber).
S3.4 Effect of 25 on the viable cell number of NCI-H460 cells (Figure S65)
Figure S65 Effect of 25 on the viable cell number of NCI-H460 cells, determined with the Trypan blue exclusion assay. Cells were incubated for 48 h with medium, DMSO (vehicle 1: % of vehicle used at the GI50 concentration of compound; vehicle 2: % of vehicle used at the 2GI50 concentration of compound), […]
compound 25. Results are the mean ± SEM from at least three independent experiments. # p ≤ 0.05 and **** p ≤ 0.0001, when comparing DMSO vs. compound treatment.
(1 picture or pasted object on this page, not shown here)

NSCLC cell line panel = test: NCI60 five-dose GI50, NSCLC cell line panel; format: cell-based; settings: Homo sapiens, read-out: GI50 range NSCLC cell line panel
Description: as §1, §2
(§6) NCI Screening Assay Experimental: Cancer cell growth assays (NCI60 screening) 5,6 One-dose study: Tested compounds were initially solubilised in DMSO, diluted into RPMI 1640 and 5% fetal bovine serum/L-glutamine, and added to 96-well plates containing cell lines previously cultured for 24 h. […] The dye was then resolubilised in Tris buffer, and the colorimetric absorbance was measured (515 nm). Growth inhibition was measured relative to the response generated from proliferating cells cultured under identical conditions for 48 h. […]
(§7) Five-dose study: Serial 5 × 10-fold dilution from an initial DMSO stock solution was performed, prior to incubation at each individual concentration (10 nM, 100 nM, 1 μM, 10 μM and 100 μM). Using seven absorbance measurements (time zero (Tz), control growth (C), and test growth in the presence of drug at the five concentration levels (Ti)), the percentage growth was calculated at each of the drug concentrations levels. […]

colon cell line panel = test: NCI60 five-dose GI50, colon cell line panel; format: cell-based; settings: Homo sapiens, read-out: GI50 range colon cell line panel
Description: as §1, §2, §6, §7

NCI-H460 spheroid = tested on: NCI-H460 spheroid; parameters: method as in PMID 34915071; settings: 3D; cited from earlier work

SMILES | GI50 (A549) | GI50 (OVCAR-4) | GI50 (MALME-3M) | percentage of dead cells (apoptosis/necrosis) (NCI-H460 cells [1]) | percentage of viable cells (NCI-H460 cells [2]) | GI50 (NSCLC cell line panel) | GI50 (colon cell line panel) | concentration reducing NCI-H460 spheroid viability (NCI-H460 spheroid)
COC(=O)c1c2c(c[n+]([O-])c1C)C(=O)C=C(NCc1ccccc1)C2=O [Compound 25] | 232 nM | 69 nM | 48 nM | did not cause an increase in the percentage of dead cells | significant decrease in the percentage of viable cells | 174 to 397 nM | 157 to 247 nM | 
COc1cccc2c1C(=O)c1c(O)c3c(c(O)c1C2=O)C[C@@](O)(C(=O)CO)C[C@@H]3O[C@H]1C[C@H](N)[C@H](O)[C@H](C)O1 [doxorubicin, reference compound] |  |  |  |  |  |  |  | 20 µM

From article PMC11345829, “Discovery of Potent Isoquinolinequinone N-Oxides to Overcome Cancer Multidrug Resistance” (Journal of Medicinal Chemistry, 2024)
